Target: T1, TSPO (Mus musculus, UniProt P50637)
T1 construct: mitochondrial-enriched membranes from DBT cells were prepared by lysing cells with ice-cold homogenization buffer; endogenous in cells; host or cells: DBT mouse astrocytoma cells (mitochondrial-enriched membranes / homogenates), untreated or cytokine-treated
Test: Filtration radioligand binding assay, [^3H]-PK 11195 binding to DBT cell homogenates
Design: Bmax: unit not given here
Procedure: Enriched membranes were prepared according to [28]. Briefly, mitochondrial-enriched membranes from DBT cells were prepared by lysing cells with ice-cold homogenization buffer (50 mM Tris, 1 mM EDTA and 3 mM MgCl2), followed by dounce homogenization (five gentle strokes). Homogenates were centrifuged (40,000×g, 15 min, 4°C) and cell pellet resuspended in 0.5 ml homogenization buffer, re-homogenized by dounce (five gentle strokes while on ice) and centrifuged again (40,000×g, 15 min, 4°C). Cell pellets were stored at −80°C until further use. Radioligand binding assays were performed in silanized glass test tubes (Kimble Glass Inc.). The following components were added: 50 µl of non-radiolabeled DAA1106 or PK 11195, 50 µl of [N-methyl-^3H]-PK 11195 (PerkinElmer, Boston MA; 250 µCi, 84.8 Ci/mmol) and 100 µl of protein (50 µg, which started the incubation) for a total volume of 200 µl in binding buffer (50 mM Tris, 1 mM EDTA, 3 mM MgCl2 and 0.1% BSA), all of which was placed in a water bath (30°C) with mild agitation for 1 hr. Incubation was stopped by rapid filtration and rinsing with ice-cold binding buffer, using the Brandel harvester (Gaithersburg, MD) and Whatman GFB filter paper (Brandel, Gaithersburg MD). Filters were then transferred to 7 ml glass scintillation vials (VWR, West Chester PA). Five ml of Ecoscint XR scintillation fluid (National Diagnostics, Atlanta, GA) was added, followed by 10 sec vortexing and ∼18 hrs incubation at room temperature prior to determining the radioactivity with a scintillation counter (PerkinElmer, Boston MA).
Data are expressed as n = number of determinations (three per independent experiment). Statistical analysis, Kd and Ki values were calculated using non-linear regression with a one binding site hyperbola, where X is the concentration of the ligand, Y is specific binding and Bmax and Kd are determined using this equation: Y = Bmax X/Kd+X calculated by GraphPad Prism 4.

With COc1ccc(OC)c(CN(C(C)=O)c2cc(F)ccc2Oc2ccccc2)c1 [DAA1106] the Ki (DBT cell homogenates, read-out: Ki, competition for [^3H]-PK 11195 binding) was 0.2 nM.

In the case of [3H]CN(C(=O)c1cc2ccccc2c(-c2ccccc2Cl)n1)C(C)CC (centres unmarked) [[^3H]-PK 11195, [N-methyl-^3H]-PK 11195], the “amount of TSPO detected with [^3H]-PK 11195 (Bmax)” value (DBT cell homogenates, untreated cells) is reported as 14 pmol of TSPO per gram of protein, the Bmax (homogenates of DBT cells treated with IFNγ (100 Ui/ml), 18–24 hrs) is reported as 17.0+/−2.6 and the Bmax (homogenates of DBT cells treated with IFNγ+TNFα, 18–24 hrs) is reported as 17.6+/−2.4. For the same compound, the Bmax (homogenates of DBT cells treated with TGFβ2 (1 ng/ml), 18–24 hrs) was 22.1+/−4.7, the Bmax (homogenates of DBT cells treated with TNFα (5 ng/ml), 18–24 hrs) was 17.4+/−2.9 and the Bmax (homogenates of DBT cells, Control (vehicle, 18–24 hrs)) was 14.0+/−1.1.

With CCC(C)N(C)C(=O)c1cc2ccccc2c(-c2ccccc2Cl)n1 (centres unmarked) [PK 11195] the EC50 (DBT cell homogenates, read-out: EC50, competition for [^3H]-PK 11195 binding) was 93 nM.
